The assay deals with T1, RORγ (Homo sapiens, UniProt P51449).
T1 construct: expressed in transfected cells; host or cells: 293FT cells (Invitrogen), expression vector pFN26A (Promega)
T1 sequence (P51449 269-508 limits assumed): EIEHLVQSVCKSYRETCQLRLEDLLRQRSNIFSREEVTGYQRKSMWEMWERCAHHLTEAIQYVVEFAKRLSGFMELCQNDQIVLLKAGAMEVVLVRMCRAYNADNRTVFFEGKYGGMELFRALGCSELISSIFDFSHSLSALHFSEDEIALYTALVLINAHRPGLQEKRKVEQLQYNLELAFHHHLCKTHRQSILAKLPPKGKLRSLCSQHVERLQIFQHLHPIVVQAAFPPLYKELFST
Nature of the assay: RORγ GAL4 reporter gene assay. The assay is classed as cell-based. The settings on record: inhibition of RORγ activity, GAL4-RORγ-LBD luciferase reporter in 293FT cells, overnight incubation; read-out: mean pIC50 (converted). The method in brief:
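293FT cells were transiently co-transfected with GAL4-DBD–RORγ-LBD (or GAL4-VP16 control) and a 9×UAS luc2P reporter, then plated at 60,000 cells/well. Compound was added at final 0.2% DMSO for 16-24 h at 37 °C, and inhibition was measured by firefly luciferase luminescence.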
On the technique in general: Reporter assays use an easily measured gene product as a stand-in for the process of interest.
For the compound `CCCN(C(=O)c1ccc(NC(=O)Cc2ccc(S(=O)(=O)NC3CC3)cc2)cc1)c1cc(C)on1` [Example 93, 4-{2-[4-(cyclopropylsulfamoyl)phenyl]acetamido}-N-(5-methyl-1,2-oxazol-3-yl)-N-propylbenzamide], the IC50 was at most 10 nM. `O=C(Cc1ccc(S(=O)(=O)CC2CC2)cc1)Nc1ccc(C(=O)Nc2ccccc2OC(F)(F)F)cc1` [Example 74, 4-[2-(4-cyclopropylmethanesulfonylphenyl)acetamido]-N-[2-(trifluoromethoxy)phenyl]benzamide]: the IC50 was at most 100 nM. For `CCN(C(=O)c1ccc(NC(=O)Cc2ccc(S(=O)(=O)CC3CC3)nc2)cc1Cl)c1ccccc1` [Example 157, 2-chloro-4-[2-(6-cyclopropylmethanesulfonylpyridin-3-yl)acetamido]-N-ethyl-N-phenylbenzamide] the value was at most 100 nM; for `CCN(C(=O)c1ccc(NC(=O)Cc2ccc(S(=O)(=O)CC3CC3)cc2)cc1)c1cccc(C(=O)OC)c1` [Example 30, methyl 3-{N-ethyl-4-[2-(4-cyclopropylmethanesulfonylphenyl)acetamido]benzamido}benzoate], at most 100 nM; for `CN(C(=O)c1ccc(NC(=O)Cc2ccc(S(=O)(=O)CC3CC3)cc2)cc1)c1ccccn1` [Example 17, 4-[2-(4-cyclopropylmethanesulfonylphenyl)acetamido]-N-methyl-N-(pyridin-2-yl)benzamide], at most 100 nM. For `O=C(Cc1ccc(S(=O)(=O)CC2CC2)cc1)Nc1ccc(C(=O)N(c2ccccn2)C2CC2)cc1` [Example 137, N-cyclopropyl-4-[2-(4-cyclopropylmethanesulfonylphenyl)acetamido]-N-(pyridin-2-yl)benzamide] the value was at most 100 nM; for `CCN(C(=O)c1ccc(NC(=O)Cc2ccc(S(=O)(=O)NC3CC3)cc2)cc1F)c1ccccc1` [Example 111, 4-{2-[4-(cyclopropylsulfamoyl)phenyl]acetamido}-N-ethyl-2-fluoro-N-phenylbenzamide], at most 1000 nM. As for `CCN(Cc1ccccc1)C(=O)c1ccc(NC(=O)Cc2ccc(S(=O)(=O)CC3CC3)cc2)cc1` [Example 42, N-benzyl-4-[2-(4-cyclopropylmethanesulfonylphenyl)acetamido]-N-ethylbenzamide], the IC50 was at most 100 nM. `CC(NC(=O)c1ccc(NC(=O)Cc2ccc(S(=O)(=O)CC3CC3)cc2)cc1)c1ccccc1` (stereo not shown) [Example 14, 4-[2-(4-cyclopropylmethanesulfonylphenyl)acetamido]-N-(1-phenylethyl)benzamide]: the IC50 is at most 100 nM. To `O=C(Cc1ccc(S(=O)(=O)CC2CC2)cc1)Nc1ccc(C(=O)N(c2ccccc2)c2ccc(Br)cc2)cc1` [Example 115, N-(4-bromophenyl)-4-[2-(4-cyclopropylmethanesulfonylphenyl)acetamido]-N-phenylbenzamide] belongs at most 100 nM. For `CC(C)(C1CCCO1)N(C(=O)c1ccc(NC(=O)Cc2ccc(S(=O)(=O)CC3CC3)nc2)cc1)c1ccccc1` (stereo not shown) [Example 160, 4-[2-(6-cyclopropylmethanesulfonylpyridin-3-yl)acetamido]-N-[2-(oxolan-2-yl)propan-2-yl]-N-phenylbenzamide] the value was at most 100 nM. To `CCN(C(=O)c1ccc(NC(=O)Cc2ccc(S(=O)(=O)CC3CC3)cc2)cc1)c1c(C)noc1C` [Example 108, 4-[2-(4-cyclopropylmethanesulfonylphenyl)acetamido]-N-(dimethyl-1,2-oxazol-4-yl)-N-ethyl-benzamide] belongs at most 100 nM; to `CC(C)(C1CCCO1)N(C(=O)c1ccc(NC(=O)Cc2ccc(S(=O)(=O)CC3CC3)cc2)cc1)c1ccccc1` (stereo not shown) [Example 135, 4-[2-(4-cyclopropylmethanesulfonylphenyl)acetamido]-N-[2-(oxolan-2-yl)propan-2-yl]-N-phenylbenzamide], at most 100 nM. On to `Cc1ccc(N(C(=O)c2ccc(NC(=O)Cc3ccc(S(=O)(=O)CC4CC4)cc3)cc2)C(C)(C)C2CCCO2)cc1` (stereo not shown) [Example 133, 4-[2-(4-cyclopropylmethanesulfonylphenyl)acetamido]-N-(4-methylphenyl)-N-[2-(oxolan-2-yl)propan-2-yl]benzamide], for which the IC50 was at most 100 nM. For `CC(C)(C)N(C(=O)c1ccc(NC(=O)Cc2ccc(S(=O)(=O)CC3CC3)nc2)c(F)c1)c1ccccc1` [Example 159, N-tert-butyl-4-[2-(6-cyclopropylmethanesulfonylpyridin-3-yl)acetamido]-3-fluoro-N-phenylbenzamide] the value was at most 10 nM; for `CCCN(C(=O)c1ccc(NC(=O)Cc2ccc(S(=O)(=O)CC3CC3)cc2)cc1)c1cccnc1` [Example 20, 4-[2-(4-cyclopropylmethanesulfonylphenyl)acetamido]-N-propyl-N-(pyridin-3-yl)benzamide], at most 10 nM; for `CCN(C(=O)c1ccc(NC(=O)Cc2ccc(S(=O)(=O)CC3CC3)cc2)cc1F)c1ccccc1Cl` [Example 118, N-(2-chlorophenyl)-4-[2-(4-cyclopropylmethanesulfonylphenyl)acetamido]-N-ethyl-2-fluorobenzamide], at most 10 nM.

Regarding `O=C(Cc1ccc(S(=O)(=O)CC2CC2)cc1)Nc1ccc(C(=O)N(c2ccccc2)C2CC2)cc1` [Example 140, N-cyclopropyl-4-[2-(4-cyclopropylmethanesulfonylphenyl)acetamido]-N-phenylbenzamide], the IC50 was at most 10 nM. For `CCOC(=O)CN(Cc1ccccc1)C(=O)c1ccc(NC(=O)Cc2ccc(S(=O)(=O)CC3CC3)cc2)cc1` [Example 32, ethyl 2-(N-benzyl-1-{4-[2-(4-cyclopropylmethanesulfonylphenyl)acetamido]phenyl}formamido)acetate] the value was at most 10 nM; for `N#CC(NC(=O)c1ccc(NC(=O)Cc2ccc(S(=O)(=O)CC3CC3)cc2)cc1)c1cccs1` (stereo not shown) [Example 72, N-[cyano(thiophen-2-yl)methyl]-4-[2-(4-cyclopropylmethanesulfonylphenyl)acetamido]benzamide], at most 1000 nM; for `CCCN(Cc1ccccc1)C(=O)c1ccc(NC(=O)Cc2ccc(S(=O)(=O)CC3CC3)cc2)cc1` [Example 21, N-benzyl-4-[2-(4-cyclopropylmethanesulfonylphenyl)acetamido]-N-propylbenzamide], at most 10 nM. For `CCN(Cc1cc(C)on1)C(=O)c1ccc(NC(=O)Cc2ccc(S(=O)(=O)CC3CC3)cc2)cc1` [Example 56, 4-[2-(4-cyclopropylmethanesulfonylphenyl)acetamido]-N-ethyl-N-[(5-methyl-1,2-oxazol-3-yl)methyl]benzamide] the value was at most 100 nM; for `CCCN(C(=O)c1ccc(NC(=O)Cc2ccc(S(=O)(=O)CC3CC3)cc2)cc1)c1ccsc1` [Example 81, 4-[2-(4-cyclopropylmethanesulfonylphenyl)acetamido]-N-propyl-N-(thiophen-3-yl)benzamide], at most 10 nM; for `CCN(C(=O)c1ccc(NC(=O)Cc2ccc(S(=O)(=O)CC3CC3)cc2)cc1Cl)c1ccccc1` [Example 100, 2-chloro-4-[2-(4-cyclopropylmethanesulfonylphenyl)acetamido]-N-ethyl-N-phenylbenzamide], at most 100 nM.

Turning to `CC(N(C(=O)c1ccc(NC(=O)Cc2ccc(S(=O)(=O)CC3CC3)cc2)cc1)c1ccccc1)C(F)(F)F` (stereo not shown) [Example 146, 4-[2-(4-cyclopropylmethanesulfonylphenyl)acetamido]-N-phenyl-N-(1,1,1-trifluoropropan-2-yl)benzamide], the IC50 is at most 10 nM.

The values are drawn from US10315996B2, “ROR gamma (RORγ) modulators” (LEAD PHARMA HOLDING B.V., priority 2015, dated 2019).
